The source of these data is ChEMBL document CHEMBL1154707, “Morpholine derivatives greatly enhance the selectivity of mammalian target of rapamycin (mTOR) inhibitors” (J Med Chem, 2009).

A short description of assay [1]: Selectivity for FLAG-tagged human mTOR over PI3Kalpha.
The target in assay [2] is Serine/threonine-protein kinase mTOR (Homo sapiens, UniProt P42345). Description: Inhibition of FLAG-tagged human mTOR by DELFIA method.
In assay [3] the target is T1, Phosphatidylinositol 4,5-bisphosphate 3-kinase catalytic subunit delta isoform (Homo sapiens, UniProt O00329).
T1 sequence (O00329 whole entry): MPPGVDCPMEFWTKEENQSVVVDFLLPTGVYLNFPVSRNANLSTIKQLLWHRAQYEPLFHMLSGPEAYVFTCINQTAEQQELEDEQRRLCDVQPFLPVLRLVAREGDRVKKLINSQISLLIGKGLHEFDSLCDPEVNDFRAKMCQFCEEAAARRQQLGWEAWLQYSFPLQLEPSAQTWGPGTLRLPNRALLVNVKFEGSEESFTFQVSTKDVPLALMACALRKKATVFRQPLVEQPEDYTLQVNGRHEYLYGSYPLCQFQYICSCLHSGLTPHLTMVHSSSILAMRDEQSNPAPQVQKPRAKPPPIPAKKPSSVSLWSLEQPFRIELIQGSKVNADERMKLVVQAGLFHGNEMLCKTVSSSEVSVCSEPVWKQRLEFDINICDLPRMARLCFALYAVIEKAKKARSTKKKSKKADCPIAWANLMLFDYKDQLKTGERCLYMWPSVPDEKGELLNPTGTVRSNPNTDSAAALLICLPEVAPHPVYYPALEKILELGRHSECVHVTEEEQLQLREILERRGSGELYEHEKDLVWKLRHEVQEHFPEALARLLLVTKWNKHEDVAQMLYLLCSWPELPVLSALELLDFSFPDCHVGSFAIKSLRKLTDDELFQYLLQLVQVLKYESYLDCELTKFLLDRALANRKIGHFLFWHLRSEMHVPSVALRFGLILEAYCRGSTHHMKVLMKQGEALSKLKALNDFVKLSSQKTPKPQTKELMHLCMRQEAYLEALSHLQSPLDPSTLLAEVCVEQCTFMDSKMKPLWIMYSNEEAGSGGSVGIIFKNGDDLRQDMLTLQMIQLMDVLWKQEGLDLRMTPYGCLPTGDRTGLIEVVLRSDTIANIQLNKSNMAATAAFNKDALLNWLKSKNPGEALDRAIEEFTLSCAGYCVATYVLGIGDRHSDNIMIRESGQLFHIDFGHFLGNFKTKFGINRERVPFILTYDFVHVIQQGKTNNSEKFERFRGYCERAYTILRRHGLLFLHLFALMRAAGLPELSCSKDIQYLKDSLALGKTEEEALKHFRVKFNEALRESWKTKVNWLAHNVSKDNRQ
Description: Inhibition of PI3Kdelta.

In assay [4] the target is Phosphatidylinositol 4,5-bisphosphate 3-kinase catalytic subunit beta isoform (Homo sapiens, UniProt P42338). Description: Inhibition of PI3Kbeta.
Assay [5] has as its target Phosphatidylinositol 4,5-bisphosphate 3-kinase catalytic subunit alpha isoform (Homo sapiens, UniProt P42336). Briefly: Inhibition of PI3Kalpha.
For a further assay, the system named is LNCaP. Description: Growth inhibition of human LNCAP cells after 3 days by MTS method. It counts as functional, cell-based. The conditions noted are these: 72 h. In general terms: Tetrazolium assays rely on reduction of a dye to a coloured formazan, in cell work by metabolically active cells.

Chain of Phosphatidylinositol 4,5-bisphosphate 3-kinase catalytic subunit beta isoform (P42338 whole entry, canonical isoform): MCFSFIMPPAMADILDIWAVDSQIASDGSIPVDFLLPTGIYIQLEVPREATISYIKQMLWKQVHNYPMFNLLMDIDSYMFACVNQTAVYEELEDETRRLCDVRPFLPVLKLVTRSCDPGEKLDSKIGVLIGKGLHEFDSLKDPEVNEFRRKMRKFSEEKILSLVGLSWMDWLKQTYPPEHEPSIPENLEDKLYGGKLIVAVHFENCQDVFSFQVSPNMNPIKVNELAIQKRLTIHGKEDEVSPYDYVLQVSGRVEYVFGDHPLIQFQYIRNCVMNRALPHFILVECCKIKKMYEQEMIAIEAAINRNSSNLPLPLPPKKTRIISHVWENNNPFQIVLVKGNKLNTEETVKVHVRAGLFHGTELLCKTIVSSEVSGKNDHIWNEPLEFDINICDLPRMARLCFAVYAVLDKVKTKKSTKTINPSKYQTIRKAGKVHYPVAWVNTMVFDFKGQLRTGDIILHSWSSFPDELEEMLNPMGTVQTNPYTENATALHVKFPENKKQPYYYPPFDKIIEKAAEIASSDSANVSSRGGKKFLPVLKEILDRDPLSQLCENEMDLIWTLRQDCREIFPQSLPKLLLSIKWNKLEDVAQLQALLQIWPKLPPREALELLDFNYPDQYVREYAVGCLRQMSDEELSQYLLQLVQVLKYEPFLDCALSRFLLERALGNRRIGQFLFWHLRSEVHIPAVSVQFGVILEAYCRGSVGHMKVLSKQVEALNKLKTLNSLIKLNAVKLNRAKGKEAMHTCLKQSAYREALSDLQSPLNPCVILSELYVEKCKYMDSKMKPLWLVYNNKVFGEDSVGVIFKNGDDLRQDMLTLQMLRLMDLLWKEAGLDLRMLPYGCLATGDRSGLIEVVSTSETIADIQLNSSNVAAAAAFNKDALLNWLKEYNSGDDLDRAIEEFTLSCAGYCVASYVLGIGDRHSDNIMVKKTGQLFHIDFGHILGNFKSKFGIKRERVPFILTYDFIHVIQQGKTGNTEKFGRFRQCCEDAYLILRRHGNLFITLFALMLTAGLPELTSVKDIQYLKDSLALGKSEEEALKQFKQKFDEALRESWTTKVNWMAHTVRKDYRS
Chain of Phosphatidylinositol 4,5-bisphosphate 3-kinase catalytic subunit alpha isoform (P42336 whole entry, canonical isoform): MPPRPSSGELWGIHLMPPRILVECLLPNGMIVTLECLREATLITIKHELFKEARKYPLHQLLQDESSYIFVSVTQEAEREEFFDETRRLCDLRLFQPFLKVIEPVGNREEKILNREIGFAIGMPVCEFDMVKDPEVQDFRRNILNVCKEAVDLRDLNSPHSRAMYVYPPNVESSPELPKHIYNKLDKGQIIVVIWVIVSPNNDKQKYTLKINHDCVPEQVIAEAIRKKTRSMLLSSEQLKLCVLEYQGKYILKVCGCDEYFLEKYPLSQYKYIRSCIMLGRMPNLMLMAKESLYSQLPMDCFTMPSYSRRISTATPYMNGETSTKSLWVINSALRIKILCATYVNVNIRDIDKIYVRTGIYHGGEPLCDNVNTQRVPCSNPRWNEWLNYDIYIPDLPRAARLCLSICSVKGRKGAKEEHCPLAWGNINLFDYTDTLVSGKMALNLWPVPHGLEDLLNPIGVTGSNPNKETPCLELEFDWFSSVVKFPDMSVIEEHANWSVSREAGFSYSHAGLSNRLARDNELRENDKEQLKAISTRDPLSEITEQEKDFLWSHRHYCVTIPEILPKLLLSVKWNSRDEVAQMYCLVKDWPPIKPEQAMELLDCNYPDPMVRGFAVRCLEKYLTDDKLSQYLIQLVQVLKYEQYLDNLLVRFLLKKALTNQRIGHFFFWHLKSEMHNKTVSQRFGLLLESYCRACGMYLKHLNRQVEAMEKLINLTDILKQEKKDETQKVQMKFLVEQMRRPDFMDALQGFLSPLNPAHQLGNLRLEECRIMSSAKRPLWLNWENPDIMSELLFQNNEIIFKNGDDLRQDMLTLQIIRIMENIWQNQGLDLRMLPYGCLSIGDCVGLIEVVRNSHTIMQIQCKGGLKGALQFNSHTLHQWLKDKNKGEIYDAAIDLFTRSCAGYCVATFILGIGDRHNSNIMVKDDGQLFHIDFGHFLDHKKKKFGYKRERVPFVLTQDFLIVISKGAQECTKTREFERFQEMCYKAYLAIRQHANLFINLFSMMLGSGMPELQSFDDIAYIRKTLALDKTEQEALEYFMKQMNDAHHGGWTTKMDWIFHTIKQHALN

`COC(=O)N1CCC(n2ncc3c(N4CCOC(C)C4)nc(-c4ccc(NC(=O)Nc5cccnc5)cc4)nc32)CC1` (stereo unspecified): the Ratio IC50 in assay [1] came out at 135. Still for that read-out and setting: in the case of `CCNC(=O)Nc1ccc(-c2nc(N3CCOC[C@H]3C)c3cnn(C4CCN(C(=O)OCC)CC4)c3n2)cc1` it was 4980. On the same count and under the same terms, in the case of `CNC(=O)Nc1ccc(-c2nc(N3C4CCC3COC4)c3cnn(C4CCN(C(=O)OC)CC4)c3n2)cc1` it was 19400.

With `COC(=O)N1CCC(n2ncc3c(N4CCOCC4)nc(-c4ccc(NC(=O)Nc5cccnc5)cc4)nc32)CC1`, in assay [1], the Ratio IC50 was determined as 175. For the compound `CCNC(=O)Nc1ccc(-c2nc(N3C4CCC3COC4)c3cnn(C4CCN(C(=O)OC)CC4)c3n2)cc1`, the Ratio IC50 in assay [1] is 8890. Turning to `COC(=O)N1CCC(n2ncc3c(N4C5CCC4COC5)nc(-c4ccc(NC(=O)Nc5cccnc5)cc4)nc32)CC1`, in assay [2], the IC50 stood at 0.16 nM. Further, the Ratio IC50 in assay [1] came out at 11100. For `COC(=O)N1CCC(n2ncc3c(N4CC5CCC(C4)O5)nc(-c4ccc(NC(=O)NC5CC5)cc4)nc32)CC1`, the IC50 is 2630 nM in assay [3], 0.62 nM in assay [2], over 10000 nM in assay [4] and 4320 nM in assay [5]. The Ratio IC50 in assay [1] came out at 6910. Turning to `CNC(=O)Nc1ccc(-c2nc(N3CCOC(C)C3)c3cnn(C4CCN(C(=O)OC)CC4)c3n2)cc1` (stereo unspecified), in assay [2], 2.3 nM corresponded to half-maximal inhibition (IC50). In assay [1], the Ratio IC50 is 116.

With `CNC(=O)Nc1ccc(-c2nc(N3C[C@@H]4C[C@H]3CO4)c3cnn(CC(F)(F)F)c3n2)cc1`, in assay [1], the Ratio IC50 stood at 380.

The compound `CNC(=O)Nc1ccc(-c2nc(N3CC4CCC(C3)O4)c3cnn(C4CCN(C(=O)OC)CC4)c3n2)cc1` returned an IC50 in assay [2] of 0.22 nM. Further, the Ratio IC50 in assay [1] came to 8010.

Take `CCNC(=O)Nc1ccc(-c2nc(N3CCOC(C)C3)c3cnn(C4CCN(C(=O)OC)CC4)c3n2)cc1` (stereo unspecified): the IC50 in assay [2] was determined as 1.9 nM. For the same compound, in assay [1], the Ratio IC50 came out at 360. As for `CCOC(=O)N1CCC(n2ncc3c(N4CCOC[C@H]4C)nc(-c4ccc(NC(=O)Nc5ccncc5)cc4)nc32)CC1`, the Ratio IC50 in assay [1] stood at 1850. Still for that read-out and setting: the figure for `O=C(NCCF)Nc1ccc(-c2nc(N3CCOCC3)c3cnn(CC(F)(F)F)c3n2)cc1` is 524. For `O=C(NCCF)Nc1ccc(-c2nc(N3CC4CCC(C3)O4)c3cnn(CC(F)(F)F)c3n2)cc1`, the IC50 in assay [2] was 0.23 nM. Also, the Ratio IC50 in assay [1] was found to be 11900.

As for `CCOC(=O)N1CCC(n2ncc3c(N4CCOC[C@@H]4C)nc(-c4ccc(NC(=O)Nc5ccncc5)cc4)nc32)CC1`, in assay [2], the midpoint of inhibition, the IC50, lay at 0.58 nM. For the same compound, the Ratio IC50 in assay [1] was 32.

In the case of `O=C(Nc1ccc(-c2nc(N3C[C@H]4C[C@@H]3CO4)c3cnn(CC(F)(F)F)c3n2)cc1)Nc1cccnc1`, the Ratio IC50 in assay [1] was found to be 114. As for `CCOC(=O)N1CCC(n2ncc3c(N4CCOC[C@@H]4C)nc(-c4ccc(NC(=O)NCCF)cc4)nc32)CC1`, in assay [2], the IC50 amounted to 1.8 nM. Also, in assay [1], the Ratio IC50 was determined as 289.

With `CNC(=O)Nc1ccc(-c2nc(N3C4CCC3COC4)c3cnn(CC(F)(F)F)c3n2)cc1`, in assay [1], the Ratio IC50 turned out to be 2420. Same read-out and setting: in the case of `CNC(=O)Nc1ccc(-c2nc(N3C[C@H]4C[C@@H]3CO4)c3cnn(CC(F)(F)F)c3n2)cc1` it was 51.

For `CCNC(=O)Nc1ccc(-c2nc(N3CCOCC3)c3cnn(C4CCN(C(=O)OCC)CC4)c3n2)cc1`, the IC50 in assay [2] amounted to 0.17 nM. For the same compound, the Ratio IC50 in assay [1] was 4140. For `O=C(Nc1ccc(-c2nc(N3C[C@@H]4C[C@H]3CO4)c3cnn(CC(F)(F)F)c3n2)cc1)NC1CC1` the same measures were 1.9 nM and 2170.

For the compound `O=C(Nc1ccc(-c2nc(N3CCOCC3)c3cnn(CC(F)(F)F)c3n2)cc1)Nc1cccnc1`, the IC50 in assay [2] turned out to be 0.23 nM. In addition, in assay [1], the Ratio IC50 is 43. With `CNC(=O)Nc1ccc(-c2nc(N3CCOCC3)c3cnn(CC(F)(F)F)c3n2)cc1`, in assay [1], the Ratio IC50 stood at 194.

Compound `CNC(=O)Nc1ccc(-c2nc(N3CC4CCC(C3)O4)c3cnn(C4CCN(Cc5cccnc5)CC4)c3n2)cc1` displayed an IC50 in assay [2] of 0.48 nM. In addition, the Ratio IC50 in assay [1] was found to be 1410. In the same order, the values of `COC(=O)N1CCC(n2ncc3c(N4CC5CCC(C4)O5)nc(-c4ccc(NC(=O)Nc5cccnc5)cc4)nc32)CC1` are 0.11 nM and 5580. In the case of `O=C(Nc1ccc(-c2nc(N3C4CCC3COC4)c3cnn(CC(F)(F)F)c3n2)cc1)Nc1cccnc1`, the Ratio IC50 in assay [1] was 1140.

The compound `CNC(=O)Nc1ccc(-c2nc(N3CC4CCC(C3)O4)c3cnn(CC(F)(F)F)c3n2)cc1` had an IC50 in assay [2] of 0.5 nM. In addition, the Ratio IC50 in assay [1] came to 3230. In assay [2], `CCNC(=O)Nc1ccc(-c2nc(N3CCOC[C@@H]3C)c3cnn(C4CCN(C(=O)OCC)CC4)c3n2)cc1` displayed an IC50 of 1.8 nM. Moreover, in assay [1], the Ratio IC50 was 307. In the case of `O=C(Nc1ccc(-c2nc(N3CC4CCC(C3)O4)c3cnn(CC(F)(F)F)c3n2)cc1)Nc1cccnc1`, inhibition in assay [2] was half-maximal at 0.19 nM (IC50). Besides, the Ratio IC50 in assay [1] is 1820. On to `O=C(Nc1ccc(-c2nc(N3C[C@H]4C[C@@H]3CO4)c3cnn(CC(F)(F)F)c3n2)cc1)NC1CC1`, for which, in assay [1], the Ratio IC50 is 179. As for `CCNC(=O)Nc1ccc(-c2nc(N3CC4CCC(C3)O4)c3cnn(C4CCN(C(=O)OC)CC4)c3n2)cc1`, the IC50 in assay [2] came out at 0.2 nM; in the assay with LNCaP, 9 nM. Also, the Ratio IC50 in assay [1] worked out at 26700. In assay [2], `O=C(Nc1ccc(-c2nc(N3C[C@@H]4C[C@H]3CO4)c3cnn(CC(F)(F)F)c3n2)cc1)Nc1cccnc1` yielded an IC50 of 1.2 nM. Besides, in assay [1], the Ratio IC50 was determined as 482. For `CCOC(=O)N1CCC(n2ncc3c(N4CCOC[C@H]4C)nc(-c4ccc(NC(=O)NCCF)cc4)nc32)CC1`, in assay [2], the IC50 was determined as 1.2 nM. Besides, the Ratio IC50 in assay [1] worked out at 3670.

A word on the IC50: it is the point on the concentration scale where inhibition reaches its midpoint. Higher therefore signals a need for much substance.
